Structures are written as SMILES. Structures can show the parent of a compound that is named as a salt. Where only a bound is given, the exact number is not on record here.

Series [1] concerns oxazolone hypersensitivity reaction. The conditions noted are these: mice, cited from earlier work.
Series [2] can be described thus: Stability in the receiver fluid. It is filed as physicochemical. The following applies: PBS receiver fluid, length of the study (48 hours). The source says:
(§1) Accurate determination of the rate of transport of buspirone through the skin relies upon the maintenance of sink conditions in the receiver fluid. […] Such high solubility was sufficient to ensure sink conditions for the study.

Series [3] is described as follows: Solubility in phosphate buffered saline (receiver fluid). It is filed as physicochemical. The following applies: aqueous buffer.
Excerpt: as §1

In the case of `O=C1CC2(CCCC2)CC(=O)N1CCCCN1CCN(c2ncccn2)CC1` [buspirone, 8-[4-[4-(2-pyrimidyl)-1-piperazinyl]butyl]-8-azaspiro[4.5]decane-7,9-dione], the oxazolone ear swelling entry in series [1] (applied topically in an undefined solution, over the range 100 mg/ml to 0.25 mg/ml, McAloon et al. 1995) was “inhibits oxazolone ear swelling”. Also, the “inhibition of oxazolone hypersensitivity reactions” value in series [1] (from U.S. Pat. No. 5,484,788, 5,631,017, WO 94/22448) is on record as “inhibit oxazolone hypersensitivity reactions”. Moreover, in series [2], the “stability in the receiver fluid” value is listed as “stable”.
A word on the solubility: it is the concentration that dissolves in the medium under given conditions. A low value points to a poorly soluble substance. Molecule `O=C1CC2(CCCC2)CC(=O)N1CCCCN1CCN(c2ncccn2)CC1` [buspirone hydrochloride] came in with a solubility in series [3] greater than 3000 µg/mL.
